Assay results: publication PMC5064435, “Inhibition of endoplasmic reticulum glucosidases is required for in vitro and in vivo dengue antiviral activity by the iminosugar UV-4” (Antiviral Research, 2016)
Counter-ions that a name gives are not always drawn.

Tests used:
[1] = target: T1, Human lysosome (α-glucosidase) (Homo sapiens, UniProt P10253); assay: enzyme inhibition assay; format: biochemical; settings: read-out: IC50 ^a / UV-4B
T1 construct: gene GAA
From the text: enzyme inhibition assay on Human lysosome (α-glucosidase)

[2] = target: T2, Human lysosome (α-galactosidase) (Homo sapiens, UniProt P06280); assay: enzyme inhibition assay; format: biochemical; settings: read-out: IC50 ^a / UV-4B
T2 construct: gene GLA
T2 sequence (P06280 32-429): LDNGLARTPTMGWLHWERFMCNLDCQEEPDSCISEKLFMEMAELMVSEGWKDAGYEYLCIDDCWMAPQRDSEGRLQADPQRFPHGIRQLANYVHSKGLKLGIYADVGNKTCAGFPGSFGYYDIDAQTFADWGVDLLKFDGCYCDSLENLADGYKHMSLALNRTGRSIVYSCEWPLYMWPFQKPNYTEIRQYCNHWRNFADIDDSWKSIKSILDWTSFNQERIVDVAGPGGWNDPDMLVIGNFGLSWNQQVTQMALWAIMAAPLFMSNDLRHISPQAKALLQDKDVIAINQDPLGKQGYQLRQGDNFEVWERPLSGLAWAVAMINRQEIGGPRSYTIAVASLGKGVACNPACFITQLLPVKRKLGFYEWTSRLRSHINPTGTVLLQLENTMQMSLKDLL
From the text: enzyme inhibition assay on Human lysosome (α-galactosidase)

[3] = target: T3, α-glucosidase I (human MDMΦs) (Homo sapiens, UniProt Q13724); assay: free oligosaccharide (Glc3Man5GlcNAc1) accumulation in human MDMΦs; format: cell-based; settings: […] h treatment of uninfected cells
T3 construct: gene MOGS; endogenous enzyme in primary human monocyte-derived macrophages
T3 sequence (Q13724 1-837): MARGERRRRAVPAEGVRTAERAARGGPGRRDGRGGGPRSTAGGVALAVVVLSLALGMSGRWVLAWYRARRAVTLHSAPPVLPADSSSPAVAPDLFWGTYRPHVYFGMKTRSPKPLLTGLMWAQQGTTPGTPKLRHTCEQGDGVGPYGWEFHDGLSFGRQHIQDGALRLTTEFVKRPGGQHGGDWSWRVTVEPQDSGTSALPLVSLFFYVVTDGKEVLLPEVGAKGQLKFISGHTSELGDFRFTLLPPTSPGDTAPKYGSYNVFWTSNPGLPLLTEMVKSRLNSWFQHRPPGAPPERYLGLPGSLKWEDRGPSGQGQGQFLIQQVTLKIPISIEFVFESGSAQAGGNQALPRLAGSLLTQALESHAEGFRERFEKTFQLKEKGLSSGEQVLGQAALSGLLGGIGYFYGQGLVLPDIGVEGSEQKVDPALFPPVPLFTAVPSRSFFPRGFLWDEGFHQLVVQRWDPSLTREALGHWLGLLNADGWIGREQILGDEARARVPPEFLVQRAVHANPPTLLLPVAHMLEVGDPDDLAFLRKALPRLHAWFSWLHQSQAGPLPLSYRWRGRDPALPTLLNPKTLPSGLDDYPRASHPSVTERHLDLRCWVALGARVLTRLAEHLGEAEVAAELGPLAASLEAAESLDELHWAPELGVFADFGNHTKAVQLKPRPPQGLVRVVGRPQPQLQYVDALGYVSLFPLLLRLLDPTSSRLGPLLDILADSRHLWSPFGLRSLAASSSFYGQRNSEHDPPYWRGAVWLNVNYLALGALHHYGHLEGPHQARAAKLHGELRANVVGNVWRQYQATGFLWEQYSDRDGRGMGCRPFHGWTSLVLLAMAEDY

[4] = target: T4, α-glucosidase II (human MDMΦs) (Homo sapiens, UniProt Q14697); assay: free oligosaccharide (Glc1Man4GlcNAc1) accumulation in human MDMΦs; format: cell-based; settings: […] h treatment of uninfected cells
T4 construct: gene GANAB; endogenous enzyme in primary human monocyte-derived macrophages; with Glucosidase 2 subunit beta
T4 sequence (Q14697 29-944): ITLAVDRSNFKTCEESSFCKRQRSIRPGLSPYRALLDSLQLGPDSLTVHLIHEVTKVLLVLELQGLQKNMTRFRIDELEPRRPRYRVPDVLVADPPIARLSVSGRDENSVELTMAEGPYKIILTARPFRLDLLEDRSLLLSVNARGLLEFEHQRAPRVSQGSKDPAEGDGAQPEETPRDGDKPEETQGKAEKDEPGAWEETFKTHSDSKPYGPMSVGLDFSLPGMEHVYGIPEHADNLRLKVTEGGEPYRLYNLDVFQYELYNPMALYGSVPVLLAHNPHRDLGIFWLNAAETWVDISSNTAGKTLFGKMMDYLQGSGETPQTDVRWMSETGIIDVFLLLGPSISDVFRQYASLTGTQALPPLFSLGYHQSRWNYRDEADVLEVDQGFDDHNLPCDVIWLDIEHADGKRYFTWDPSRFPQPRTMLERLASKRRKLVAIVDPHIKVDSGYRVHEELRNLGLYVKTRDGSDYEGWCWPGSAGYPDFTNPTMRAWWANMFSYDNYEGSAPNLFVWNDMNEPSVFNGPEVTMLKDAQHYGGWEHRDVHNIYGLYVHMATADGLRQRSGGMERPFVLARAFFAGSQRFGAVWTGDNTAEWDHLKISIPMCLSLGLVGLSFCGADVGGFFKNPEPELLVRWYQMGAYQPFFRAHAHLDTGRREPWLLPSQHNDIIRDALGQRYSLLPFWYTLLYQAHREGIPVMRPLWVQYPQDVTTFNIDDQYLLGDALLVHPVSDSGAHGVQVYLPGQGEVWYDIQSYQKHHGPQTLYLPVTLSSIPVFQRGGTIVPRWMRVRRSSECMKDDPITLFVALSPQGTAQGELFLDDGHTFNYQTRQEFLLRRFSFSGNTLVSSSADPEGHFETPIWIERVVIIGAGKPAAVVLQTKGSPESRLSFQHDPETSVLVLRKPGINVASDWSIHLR
T4 sequence (P14314 15-528 partner): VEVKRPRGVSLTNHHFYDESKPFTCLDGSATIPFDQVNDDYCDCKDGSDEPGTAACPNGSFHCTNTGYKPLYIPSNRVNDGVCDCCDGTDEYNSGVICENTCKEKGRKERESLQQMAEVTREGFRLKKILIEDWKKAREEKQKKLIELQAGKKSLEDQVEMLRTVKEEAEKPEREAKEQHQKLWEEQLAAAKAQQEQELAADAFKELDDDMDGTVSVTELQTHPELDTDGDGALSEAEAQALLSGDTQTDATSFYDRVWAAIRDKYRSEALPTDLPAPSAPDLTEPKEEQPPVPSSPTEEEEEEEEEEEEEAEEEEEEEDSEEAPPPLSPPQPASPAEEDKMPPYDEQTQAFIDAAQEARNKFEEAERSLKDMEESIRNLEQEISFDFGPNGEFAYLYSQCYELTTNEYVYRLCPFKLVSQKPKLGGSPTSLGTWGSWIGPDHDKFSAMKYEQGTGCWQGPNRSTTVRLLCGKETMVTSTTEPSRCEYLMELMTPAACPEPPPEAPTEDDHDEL

[5] = target: T5, Rat intestinal maltase; assay: enzyme inhibition assay; format: biochemical; settings: read-out: IC50 ^a / UV-4B
T5 construct: gene Mgam; native rat intestinal enzyme activity; maltase may be maltase-glucoamylase and/or sucrase-isomaltase
From the text: enzyme inhibition assay on Rat intestinal maltase

- IC50 [1]: 0.39 µM
- IC50 [2]: > 1000 µM
- IC50 [5]: 0.28 µM
SMILES: COCCCCCCCCCN1C[C@H](O)[C@@H](O)[C@H](O)[C@H]1CO [UV-4B, N-(9′-methoxynonyl)-1-deoxynojirimycin hydrochloride]
- free oligosaccharide (Glc3Man5GlcNAc1) accumulation in human MDMΦs [3]: UV-4B led to accumulation of FOS representative of inhibition of both α-glucosidases
- free oligosaccharide (Glc1Man4GlcNAc1) accumulation in human MDMΦs [4]: UV-4B led to accumulation of FOS representative of inhibition of both α-glucosidases
